This is an account of results in patent publication US20250017881A1, “Fatty acids for ketosis control” (N.V. Nutricia, priority 2022, published 2025).

Assay type in all cases: cell-based
Series [1] deals with mouse liver cells (Hepa1-6 cell line). As to the kind of experiment: Ketone production (beta-hydroxybutyrate in medium) by mouse liver cells. Particulars: for beta-hydroxybutyrate production, fatty acid provided alone: provided alone to liver cells at 1 μM, 5 μM and 10 μM, 6 h ketogenic phase; for beta-hydroxybutyrate production when combined with 100 μM OA, versus 100 μM OA alone: test fatty acid 1 μM to 10 μM (1, 5, 10 μM) + 100 μM oleic acid; for production of ketones from 100 μM fatty acid blend (K-one): test fatty acid within 1 μM to 10 μM + 100 μM fatty acid blend; for ketone production in the absence of a ketogenic fat blend: 5 μM each, alone or in combination. How it is done:
An assay to measure ketone production in mouse liver cells (Hepa1-6 cell line) was used wherein cells were first grown to a monolayer (growth phase), then exposed to starvation to deplete cellular lipid stores and subsequently brought into a ketogenic phase wherein cells were cultured in presence of oleic acid or a ketogenic diet fat blend with or without the presence of one of C2, C4, C6 fatty acids, citrate and nicotinamide riboside (herein also referred to as C2, C4, C6, citrate and NR). The ketone body production was subsequently determined by measurement of beta-hydroxybutyrate in the cell culture medium according to the details set out below:
Starvation phase: At the end of the growth phase the cells formed a monolayer. The medium was exchanged for DMEM containing 1 mM glucose and antibiotics (1% penicillin & streptomycin) but no FBS. The medium was further supplemented with L-carnitine (a required co-factor for the uptake of fatty acids into the mitochondria, where fatty acids are turned into ketones). The cells were incubated in this medium for 24 hours. During this time, the cells were vastly deprived of glucose, lipids and hormones contained in FBS, forcing them to consume and empty their lipid stores. […] Moreover, the starvation phase is thought to induce specific metabolic changes that maximize the production of ketones.
Ketogenic phase: At the end of the starvation phase, the medium was exchanged for Krebs-Henseleit buffer (KHB) supplemented with the test nutrients (single fatty acids and fatty acid blend shown in table 1) and L-carnitine.
The fatty acid blend is contained in a similar fatty acid composition to the one used in a ketogenic diet (K-one). The content of every fatty acid in the blend is given as the molar ratio to Oleic acid (OA), whose molar content is set to 1. Dilutions of this blend were used to determine the dose response curve in FIGS. 1B and 1D. C2 and C4 are not included in the blend.
KHB is composed of salts and bicarbonate as a chemical buffer to maintain the osmotic pressure and acidity (pH) at physiological levels. Medium and long chain fatty acids are coupled to bovine serum albumin prior to the assay to make them soluble in KHB and allow their efficient uptake by the cells. The coupling is physiological since in humans, medium and long chain fatty acids are also normally coupled to albumin for transport in the blood circulation. Short chain fatty acids (C2, C4) were not coupled to albumin in the assay since they are water-soluble and circulate freely in humans. The cells were incubated for 6 hours at 37° C. During this time, they produce ketones from the test nutrients with little to no interference from other nutrients and secrete β-hydroxybutyrate (β-Hb) into the medium.
β-Hb measurements: At the end of the ketogenic phase, the whole medium was collected and dried by vacuum centrifugation for 20 hours at 21° C. The dry pellet was resuspended in a small volume of assay buffer to yield a 10-20-fold higher β-Hb concentration than in the medium. The samples were deproteinized using spin columns to measure the free unbound fraction of R-Hb. […] The Fluorescence was measured on a fluorescence microplate reader and is directly proportional to the β-Hb concentration in the sample within a range of 0.1 μM to 50 μM β-Hb.

Series [2] has the same test system. As to the kind of experiment: Propionate viability assay (ATP content, bioluminescence). The method, then:
Starvation phase: At the end of the growth phase the cells formed a monolayer. The medium was exchanged for DMEM containing 1 mM glucose and antibiotics (1% penicillin & streptomycin) but no FBS. The medium was further supplemented with L-carnitine (a required co-factor for the uptake of fatty acids into the mitochondria, where fatty acids are turned into ketones). […] The cells were incubated in this medium for 24 hours.

For series [3], the system named is NAD+ depleted mouse liver cells (Hepa1-6 cells). Description: NAD+ replenishment of NAD+ depleted liver cells by NAD+ precursors. The method, then: An assay was developed to measure NAD+ replenishment of NAD+ depleted mouse liver cells (Hepa1-6 cells) by NAD+ precursors under ketogenic diet-like conditions. In this assay, mouse liver cells were starved of glucose and depleted of NAD+ through incubation in a very low glucose (1 mM) medium free of vitamin B3, Trp and FBS and supplemented with 10 nM of an NAD+ depleting drug called FK866. Thereafter, the cells were fed with NR or NAM or Niacin (provided as a combination of NAM and nicotinic acid in a 1:1 molar ratio) or Trp to replenish the cells with NAD+. At the end of the supplementation phase, the cells were scraped and extracted using the NAD+ extraction buffer of the EnzyChrom™ NAD/NADH Assay Kit from BioAssay Systems. The NAD+ content of the cells was determined with the same kit following the manufacturer's manual. The NAD+ measurement is based on a […] reaction, in which NAD+ is reduced to NADH, which in turn reduces a formazan (MTT) reagent. The intensity of the reduced product color, measured at 565 nm, is proportional to the NAD+ concentration in the sample. This assay is highly specific for NAD+ and has minimal interference (<1%) by NADP+ or NADPH.

In series [4] the test system is NAD+ depleted mouse liver cells. As to the kind of experiment: Ketone production of NAD+ depleted liver cells replenished with NR. Particulars: NR 10 μM. The method, then: To measure the impact of replenishing NAD+ in liver cells with NR on ketone production, mouse liver cells were nutrient-deprived in medium containing low (1 mM) glucose and L-carnitine, but no fetal bovine serum, and no NAD+ precursors in the form of vitamin B3 (Niacin, NA, NAM) or Trp, Concomitantly the cells were treated with the NAD+ depleting drug FK866. These conditions created ketogenic diet like nutrient conditions and depleted the cells of NAD+. After 18 hours of incubation, FK866 was removed from the medium and a concentration range of NR was added to replenish NAD+ in liver cells. After 24 hours, the cells were switched to Krebs-Henseleit buffer (KHB) containing L-carnitine and a concentration range (1 μM to 100 μM) of oleic acid, a long chain fatty acid, for 6 hours to induce and measure the production and secretion of b-hydroxybutyrate (PHB) into the medium.

Entries after “also recorded” stand apart in the source; their conditions may differ.

Take `CC(=O)O` [C2, acetic acid]: the “beta-hydroxybutyrate production when combined with 100 μM fatty acid blend, versus blend alone” value in series [1] (1 μM or 10 μM C2 + 100 μM fatty acid blend (K-one)) is on record as “slightly greater production of PHb”. In series [1], the “beta-hydroxybutyrate production, fatty acid provided alone” value is “does not yield any ketones”; the “beta-hydroxybutyrate production when combined with 100 μM OA, versus 100 μM OA alone” value is given as “more PHb than 100 μM OA alone; also recorded: enhances the production of ketones”; the “production of ketones from 100 μM fatty acid blend (K-one)” value (“production of ketones … (K-one)” below) was “enhances the production of ketones”. In addition, in series [1] (listed as 02), the “beta-hydroxybutyrate production, fatty acid provided alone” value was “virtually no bHB”.
In the case of `CCC(=O)O` [C3, propionic acid], in series [2] (300 uM to 10 mM C3, 24-hour starvation plus 6-hour ketogenic phase), the “cytotoxicity, long-term assessment” value is reported as “evident for the entire dose-range”. In addition, in series [2] (10 mM C3, 6-hours of exposure (ketogenic phase)), the “cytotoxicity, short-term exposure” value was “Cytotoxicity was already noted”. Moreover, in series [2] (C3 to 10 mM as printed), the “cytotoxicity (ATP content) over the concentration range” value is recorded as “dose-dependent increase in cytotoxicity”. The “reduction of beta-hydroxybutyrate yield compared to 100 μM fatty acid blend alone” value in series [1] (1 μM, 5 μM and 10 μM C3 + 100 μM fatty acid blend) is given as “more than 60%”. Further, in series [1], the “beta-hydroxybutyrate production, fatty acid provided alone” value is “yielded no PHb”; the “beta-hydroxybutyrate production when combined with 100 μM OA, versus 100 μM OA alone” value is “less PHb than 100 μM OA alone; also recorded: inhibits the top-level production of ketones”; the “production of ketones … (K-one)” value is given as “dose-dependent manner; also recorded: inhibits the top-level production of ketones”.
As to `CCCC(=O)O` [C4, butyric acid], the “ketone production in the absence of a ketogenic fat blend” value in series [1] (no fat blend) is given as “hardly any ketones”. In addition, the “beta-hydroxybutyrate production when combined with 100 μM fatty acid blend, versus blend alone” value in series [1] (10 μM C4 + 100 μM fatty acid blend (K-one)) is reported as “more βHb than providing the 100 μM fatty acid blend alone”. The “ketone production from a concentration range of fatty acid blend” value in series [1] (fixed 10 μM C4 + 1 μM to 100 μM fatty acid blend (K-one), versus blend without C4) is given as “increasingly enhanced the production of ketones”. In addition, in series [1], the “beta-hydroxybutyrate production, fatty acid provided alone” value is given as “hardly yielded any PHb”; the “beta-hydroxybutyrate production when combined with 100 μM OA, versus 100 μM OA alone” value is “more PHb than providing 100 μM OA alone; also recorded: potentiates the production of ketones”; the “production of ketones … (K-one)” value was “potentiates the production of ketones”.
`CCCCCC(=O)O` [C6, caproic acid]: the “ketone production in the absence of a ketogenic fat blend” value in series [1] (no fat blend) was “hardly any ketones”. For the same molecule, the “concentration above which the fatty acid starts to be turned as a substrate into beta-hydroxybutyrate” value in series [1] (dose-response curve of the fatty acid alone, 1 μM to 100 μM) is listed as “above 10 μM”. Also, in series [1], the “beta-hydroxybutyrate production when combined with 100 μM OA, versus 100 μM OA alone” value is “potentiates the production of ketones” and the “production of ketones … (K-one)” value is listed as “potentiates the production of ketones”.
Turning to `O=C(/C=C/c1cccnc1)NCCCCC1CCN(C(=O)c2ccccc2)CC1` [FK866, reference compound], the “depletion of NAD+ relative to baseline NAD+ content of untreated liver cells” value in series [3] (10 nM FK866, very low glucose medium) was roughly 70%.
`NC(=O)c1ccc[n+]([C@@H]2O[C@H](CO)[C@@H](O)[C@H]2O)c1` [NR, nicotinamide riboside]: in series [4] (150 μM and 1000 μM for 24 h, then oleic acid 1 μM to 100 μM for 6 h), the “top-level production of ketones” value is “increased”. Moreover, the “NAD+ content” value in series [4] (150 μM and 1000 μM, ketogenic diet like nutrient conditions) was “increased”. In series [3] (1 mM), the “increase of NAD+ content versus equimolar amounts of NAM or Niacin” value is reported as “significantly greater extent”. In addition, the “increase of NAD+ content versus equimolar amounts of Niacin” value in series [3] (lower concentrations below 150 μM) was “greater extent”. For the same molecule, the “NAD+ content of NAD+ depleted liver cells after provision” value in series [3] (within 24 hours of treatment, concentration range) was “dose-dependently replenishes NAD+ content to and above this baseline”.
As to `CCCCCCCC/C=C\CCCCCCCC(=O)O` [OA, oleic acid, reference compound], the “concentration at which top-level (maximized) ketone production is achieved” value in series [1] (ketogenic substrate alone, dose-response curve) worked out at 100 µM.
On to `O=C(O)CC(O)(CC(=O)O)C(=O)O` [citrate], for which the “increase of ketone production from the fat blend” value in series [1] (200 μM to 1000 μM citrate + 100 μM fatty acid blend (K-one)) is listed as 10-20%. Also, the “ketone production, citrate provided alone” value in series [1] (citrate alone, no fat blend) is given as “yielded no ketones”.
